Source: ChEMBL document CHEMBL4138123, “Design, synthesis and biological evaluation of novel pyrazolochalcones as potential modulators of PI3K/Akt/mTOR pathway and inducers of apoptosis in breast cancer cells” (Eur J Med Chem, 2017)
pIC50: −log10 of the molar value.

Experiments:
OVCAR-3 = assay: Cytotoxicity against human OVCAR3 cells assessed as cell growth at 0.01 uM after 48 hrs by sulforhodamine B assay relative to control; type: functional; conditions: OVCAR-3, 48 h, read-out: Activity
NCI-H460 = assay: Cytotoxicity against human NCI-H460 cells assessed as growth inhibition after 48 hrs by sulforhodamine B assay; type: functional; conditions: NCI-H460, 48 h
UO-31 = assay: Cytotoxicity against human UO31 cells assessed as cell growth at 100 uM after 48 hrs by sulforhodamine B assay relative to control; type: functional; conditions: UO-31, 48 h, read-out: Activity
Hs-578T = assay: Cytotoxicity against human Hs 578T cells assessed as cell growth at 100 uM after 48 hrs by sulforhodamine B assay relative to control; type: functional; conditions: read-out: Activity
OVCAR-5 [1] = assay: Cytotoxicity against human OVCAR5 cells assessed as cell growth at 100 uM after 48 hrs by sulforhodamine B assay relative to control; type: functional; conditions: OVCAR-5, 48 h, read-out: Activity
786-0 = assay: Cytotoxicity against human 786-0 cells assessed as cell growth at 1 uM after 48 hrs by sulforhodamine B assay relative to control; type: functional; conditions: 786-0, 48 h, read-out: Activity
HCT-116 = assay: Cytotoxicity against human HCT116 cells assessed as cell growth at 1 uM after 48 hrs by sulforhodamine B assay relative to control; type: functional; conditions: HCT-116, 48 h, read-out: Activity
U-251 [2] = assay: Cytotoxicity against human U251 cells assessed as cell growth at 100 uM after 48 hrs by sulforhodamine B assay relative to control; type: functional; conditions: U-251, 48 h, read-out: Activity
MCF7 [3] = assay: Cytotoxicity against human MCF7 cells assessed as growth inhibition after 48 hrs by MTT assay; type: functional, cell-based; conditions: MCF7, 48 h
MDA-MB-231 = assay: Cytotoxicity against human MDA-MB-231 cells assessed as cell growth at 10 uM after 48 hrs by sulforhodamine B assay relative to control; type: functional; conditions: MDA-MB-231, 48 h, read-out: Activity
COLO 205 = assay: Cytotoxicity against human COLO205 cells assessed as cell growth at 10 uM after 48 hrs by sulforhodamine B assay relative to control; type: functional; conditions: COLO 205, 48 h, read-out: Activity
CCRF-CEM [4] = assay: Cytotoxicity against human CCRF-CEM cells assessed as cell growth at 0.1 uM after 48 hrs by sulforhodamine B assay relative to control; type: functional; conditions: read-out: Activity
SK-MEL-5 [5] = assay: Cytotoxicity against human SK-MEL-5 cells assessed as cell growth at 1 uM after 48 hrs by sulforhodamine B assay relative to control; type: functional; conditions: SK-MEL-5, 48 h, read-out: Activity
M14 = assay: Cytotoxicity against human M14 cells assessed as growth inhibition after 48 hrs by sulforhodamine B assay; type: functional; conditions: M14, 48 h
A549 = assay: Cytotoxicity against human A549/ATCC cells assessed as cell growth at 1 uM after 48 hrs by sulforhodamine B assay relative to control; type: functional; conditions: A549, 48 h, read-out: Activity
NCI-H522 = assay: Cytotoxicity against human NCI-H522 cells assessed as cell growth at 1 uM after 48 hrs by sulforhodamine B assay relative to control; type: functional; conditions: NCI-H522, 48 h, read-out: Activity
OVCAR-5 [6] = assay: Cytotoxicity against human OVCAR5 cells assessed as cell growth at 10 uM after 48 hrs by sulforhodamine B assay relative to control; type: functional; conditions: OVCAR-5, 48 h, read-out: Activity
T47D = assay: Cytotoxicity against human T47D cells assessed as cell growth at 0.01 uM after 48 hrs by sulforhodamine B assay relative to control; type: functional; conditions: read-out: Activity
HL-60(TB) = assay: Cytotoxicity against human HL-60(TB) cells assessed as cell growth at 0.01 uM after 48 hrs by sulforhodamine B assay relative to control; type: functional; conditions: HL-60, 48 h, read-out: Activity
PC-3 = assay: Cytotoxicity against human PC3 cells assessed as cell growth at 0.01 uM after 48 hrs by sulforhodamine B assay relative to control; type: functional; conditions: PC-3, 48 h, read-out: Activity
KM12 = assay: Cytotoxicity against human KM12 cells assessed as cell growth at 0.1 uM after 48 hrs by sulforhodamine B assay relative to control; type: functional; conditions: KM12, 48 h, read-out: Activity
SNB-19 = assay: Cytotoxicity against human SNB19 cells assessed as cell growth at 10 uM after 48 hrs by sulforhodamine B assay relative to control; type: functional; conditions: SNB-19, 48 h, read-out: Activity
NCI-H226 = assay: Cytotoxicity against human NCI-H226 cells assessed as growth inhibition after 48 hrs by sulforhodamine B assay; type: functional; conditions: NCI-H226, 48 h
CCRF-CEM [7] = assay: Cytotoxicity against human CCRF-CEM cells assessed as cell growth at 10 uM after 48 hrs by sulforhodamine B assay relative to control; type: functional; conditions: read-out: Activity
SK-MEL-5 [8] = assay: Cytotoxicity against human SK-MEL-5 cells assessed as growth inhibition after 48 hrs by sulforhodamine B assay; type: functional; conditions: SK-MEL-5, 48 h
SN12C = assay: Cytotoxicity against human SN12C cells assessed as cell growth at 0.1 uM after 48 hrs by sulforhodamine B assay relative to control; type: functional; conditions: read-out: Activity
SF-268 = assay: Cytotoxicity against human SF268 cells assessed as cell growth at 100 uM after 48 hrs by sulforhodamine B assay relative to control; type: functional; conditions: SF-268, 48 h, read-out: Activity
MDA-MB-435 = assay: Cytotoxicity against human MDA-MB-435 cells assessed as cell growth at 0.01 uM after 48 hrs by sulforhodamine B assay relative to control; type: functional; conditions: MDA-MB-435, 48 h, read-out: Activity
SW-620 = assay: Cytotoxicity against human SW620 cells assessed as cell growth at 1 uM after 48 hrs by sulforhodamine B assay relative to control; type: functional; conditions: SW-620, 48 h, read-out: Activity
OVCAR-4 = assay: Cytotoxicity against human OVCAR4 cells assessed as cell growth at 100 uM after 48 hrs by sulforhodamine B assay relative to control; type: functional; conditions: OVCAR-4, 48 h, read-out: Activity
U-251 [9] = assay: Cytotoxicity against human U251 cells assessed as growth inhibition after 48 hrs by sulforhodamine B assay; type: functional; conditions: U-251, 48 h
HCT-15 = assay: Cytotoxicity against human HCT15 cells assessed as cell growth at 1 uM after 48 hrs by sulforhodamine B assay relative to control; type: functional; conditions: HCT-15, 48 h, read-out: Activity
MCF7 [10] = assay: Cytotoxicity against human MCF7 cells assessed as cell growth at 1 uM after 48 hrs by sulforhodamine B assay relative to control; type: functional; conditions: MCF7, 48 h, read-out: Activity
NCI/ADR-RES [11] = assay: Cytotoxicity against human NCI/ADR-RES cells assessed as cell growth at 1 uM after 48 hrs by sulforhodamine B assay relative to control; type: functional; conditions: read-out: Activity
NCI/ADR-RES [12] = assay: Cytotoxicity against human NCI/ADR-RES cells assessed as cell growth at 0.01 uM after 48 hrs by sulforhodamine B assay relative to control; type: functional; conditions: read-out: Activity

COc1ccc(C(=O)/C=C/c2cc(-c3ccc4c(c3)OCO4)n[nH]2)cc1OC
growth at 0.01 µM (OVCAR-3): 103% | LC50 (NCI-H460): 9.07 µM | TGI (NCI-H460): 4.05 µM | growth at 100 µM (UO-31): -93% | growth at 100 µM (Hs-578T): -5% | growth at 100 µM (OVCAR-5 [1]): -30% | growth at 1 µM (786-0): 94% | growth at 1 µM (HCT-116): 87% | growth at 100 µM (U-251 [2]): -91% | pIC50 (MCF7 [3]): 5.60 | growth at 10 µM (MDA-MB-231): -14% | growth at 10 µM (COLO 205): 14% | growth at 0.1 µM (CCRF-CEM [4]): 99% | growth at 1 µM (SK-MEL-5 [5]): 95% | LC50 (concentration killing 50% of cells) (M14): 58.4 µM | TGI (M14): 21.4 µM | growth at 1 µM (A549): 85% | growth at 1 µM (NCI-H522): 84% | growth at 10 µM (OVCAR-5 [6]): 17% | growth at 0.01 µM (T47D): 90% | growth at 0.01 µM (HL-60(TB)): 97% | growth at 0.01 µM (PC-3): 99% | growth at 0.1 µM (KM12): 99% | growth at 10 µM (SNB-19): 21% | LC50 (concentration killing 50% of cells) (NCI-H226): > 100 µM | TGI (NCI-H226): 11.2 µM | growth at 10 µM (CCRF-CEM [7]): -2% | LC50 (concentration killing 50% of cells) (SK-MEL-5 [8]): 46.4 µM | TGI (SK-MEL-5 [8]): 19.9 µM | growth at 0.1 µM (SN12C): 95% | growth at 100 µM (SF-268): -74% | growth at 0.01 µM (MDA-MB-435): 98% | growth at 1 µM (SW-620): 92% | growth at 100 µM (OVCAR-4): -12% | LC50 (U-251 [9]): 23.8 µM | TGI (U-251 [9]): 5.37 µM | growth at 1 µM (HCT-15): 86% | growth at 1 µM (MCF7 [10]): 88%

COc1cc(-c2cc(/C=C/C(=O)c3ccc(N)cc3)[nH]n2)cc(OC)c1OC
growth at 0.01 µM (OVCAR-3): 101% | GI50 (NCI-H460): 1.8 µM | LC50 (NCI-H460): 44.8 µM | TGI (NCI-H460): 5.1 µM | growth at 100 µM (UO-31): -93% | growth at 1 µM (NCI/ADR-RES [11]): 98% | growth at 100 µM (Hs-578T): 2% | growth at 100 µM (OVCAR-5 [1]): -66% | growth at 1 µM (786-0): 81% | growth at 1 µM (HCT-116): 56% | growth at 100 µM (U-251 [2]): -98% | pIC50 (MCF7 [3]): 5.80 | growth at 10 µM (MDA-MB-231): 7% | growth at 10 µM (COLO 205): -84% | growth at 0.1 µM (CCRF-CEM [4]): 91% | growth at 1 µM (SK-MEL-5 [5]): 90% | GI50 (M14): 1.83 µM | LC50 (concentration killing 50% of cells) (M14): 8.17 µM | TGI (M14): 3.86 µM | growth at 1 µM (A549): 80% | growth at 1 µM (NCI-H522): 77% | growth at 10 µM (OVCAR-5 [6]): -66% | growth at 0.01 µM (T47D): 83% | growth at 0.01 µM (HL-60(TB)): 99% | growth at 0.01 µM (PC-3): 97% | growth at 0.1 µM (KM12): 98% | GI50 (NCI-H226): 1.71 µM | LC50 (concentration killing 50% of cells) (NCI-H226): 7.18 µM | TGI (NCI-H226): 3.51 µM | growth at 10 µM (CCRF-CEM [7]): -22% | GI50 (SK-MEL-5 [8]): 1.65 µM | LC50 (concentration killing 50% of cells) (SK-MEL-5 [8]): 5.69 µM | TGI (SK-MEL-5 [8]): 3.06 µM | growth at 0.01 µM (NCI/ADR-RES [12]): 106% | growth at 0.1 µM (SN12C): 99% | growth at 100 µM (SF-268): -80% | growth at 0.01 µM (MDA-MB-435): 90% | growth at 1 µM (SW-620): 82% | growth at 100 µM (OVCAR-4): -96% | GI50 (U-251 [9]): 1.42 µM | LC50 (U-251 [9]): 5.39 µM | TGI (U-251 [9]): 2.77 µM | growth at 1 µM (HCT-15): 60% | growth at 1 µM (MCF7 [10]): 66%
